# Test results reported in US9561228B2 (Celgene Avilomics Research, Inc., priority 2013, dated 2017).
# Columns and labels:
# [1] = test system: ERK1/2 phosphorylation of p90RSK in HT29 cells; test: pRSK MSD Assay in HT29 cells; assay type: cell-based; conditions: Homo sapiens, HT-29, read-out: ERK1/ERK2 PRSK MSD HT29 EC50
# Summary of the method: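 Serum-starved HT29 cells (0.1% FBS overnight) treated with test compound for 120 min at 37° C, then lysed with protease and phosphatase inhibitors. Phospho-p90RSK quantified by MSD sandwich immunoassay: RSK capture antibody, phospho-RSK detection antibody plus Sulfo-tagged antibody, electrochemiluminescence read.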
# [2] = test system: A375 cells (malignant melanoma); test: Inhibition of cancer cell proliferation, A375 (CellTiterGlo, 72 hours); assay type: cell-based; conditions: Homo sapiens, A-375
# Procedure: Measurement of Inhibition of Cancer Cell Proliferation (A375/Malignant Melanoma)
# The following protocol used an A375 cell line, which cell line is a model for malignant melanoma. A375 cells were split and 3000 cells in […] of growth medium were added per well of a flat-bottom 96-well plate. A two-fold test compound solution in serum-free DMEM was made, starting at 5,000 nM. Then, 3-fold serial dilutions were made across the plate from well 1 to well 11. Well 12, the last well in a row on the plate, was left as untreated control. 100 μl compound solutions were then transferred to the wells, so the total volume of media was 200 μl per well. Plates were returned to a 37° C. incubator, and the cells were cultured for 72 hours. To measure cell proliferation after 72 hours, media was discarded from the plates, 50 μl/well of fresh medium was added, and 50 μl CellTiterGlo solution was added (Promega Cat#G7573). The plate was covered with a dark lid and incubated for 10 min. A white sealing tape was applied to the bottom of the plate, and the plate was read in a luminescence plate reader. […] 50 μl CellTiterGlo was added per well, and the plate was read in a luminescence plate reader after 10 min. The reading was plotted vs. cell number to generate a standard curve and the equation of the curve fit. The compound-treated sample luminescence readings were converted to cell numbers using the curve-fit equation. The percent of inhibition, using untreated control as 100% growth, was then calculated. GI50 was then calculated by GraphPad Prism.
# [3] = test system: HT-29 cells (colorectal adenocarcinoma); test: Inhibition of cancer cell proliferation, HT-29 (CellTiterGlo, 72 hours); assay type: cell-based; conditions: Homo sapiens
# Summary of the method: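 HT-29 cells seeded at 3000/well, then treated with 3-fold serial dilutions from a 5,000 nM two-fold solution in serum-free RPMI1640, untreated wells as control, for 72 h at 37° C. CellTiterGlo luminescence converted to cell number via a standard curve; GI50 from percent inhibition versus untreated growth.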
# [4] = target: T1, MEK1 activated ERK1 (Homo sapiens, UniProt P27361); test: Omnia continuous-read kinase assay for potency against MEK1 activated ERK1; assay type: biochemical; conditions: MEK1 activated ERK1, ATP at KM; read-out: ERK1 Omnia WT ATP KM IC50
# T1 construct: purchased Millipore (Billerica, Mass.) 14-439-K
# T1 sequence (P27361 whole entry): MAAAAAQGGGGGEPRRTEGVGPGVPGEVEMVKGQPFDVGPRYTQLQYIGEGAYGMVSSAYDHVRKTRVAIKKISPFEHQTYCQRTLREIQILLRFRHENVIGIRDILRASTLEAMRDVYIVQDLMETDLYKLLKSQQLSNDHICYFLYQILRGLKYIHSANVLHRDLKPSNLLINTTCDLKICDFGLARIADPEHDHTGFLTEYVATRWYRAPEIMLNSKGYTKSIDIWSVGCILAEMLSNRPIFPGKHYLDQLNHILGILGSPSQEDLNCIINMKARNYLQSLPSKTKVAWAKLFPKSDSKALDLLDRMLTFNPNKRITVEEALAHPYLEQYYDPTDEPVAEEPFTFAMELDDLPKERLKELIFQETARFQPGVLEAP
# Summary of the method: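 Apparent IC50 came from initial reaction slopes (RFU vs time) plotted against log inhibitor with a variable-slope fit. Reactions were started with ERK1 (4 nM final) added to 50 μM ATP, roughly at its appKM, and 10 μM Sox-conjugated ST17 peptide in 20 mM Tris pH 7.5, 5 mM MgCl2. Fluorescence was monitored every 71 seconds.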
EC50 [1] [nM],GI50 [2] [nM],GI50 [3] [nM],IC50 [4] [nM],Compound
101 to 500,101 to 500,101 to 500,,"C=CC(=O)Nc1ccccc1Nc1nc(N[C@H]2CCCN(C(N)=O)C2)ncc1C(F)(F)F [Compound I-18, (S)-3-((4-((2-Acrylamidophenyl)amino)-5-(trifluoromethyl)pyrimidin-2-yl)amino)piperidine-1-carboxamide]"
101 to 500,> 1000,> 1000,,"C=CC(=O)Nc1cc(C)ccc1Nc1nc(N[C@H]2CCCN(C(=O)CN)C2)ncc1C(F)(F)F [Compound I-42, (S)—N-(2-((2-((1-(2-Aminoacetyl)piperidin-3-yl)amino)-5-(trifluoromethyl)pyrimidin-4-yl)amino)-5-methylphenyl)acrylamide]"
101 to 500,< 100,< 100,101 to 500,"C=CC(=O)Nc1ccccc1Nc1nc(Nc2cc(C(=O)NC)c(F)cc2C)ncc1Cl [Compound I-231, 5-((4-((2-acrylamidophenyl)amino)-5-chloropyrimidin-2-yl)amino)-2-fluoro-N,4-dimethylbenzamide]"
> 1000,< 100,101 to 500,,"NC(=O)c1ccccc1Nc1nc(N[C@H]2CCCN(C(=O)CO)C2)ncc1C(F)(F)F [Compound I-307, (S)-2-((2-((1-(2-hydroxyacetyl)piperidin-3-yl)amino)-5-(trifluoromethyl)pyrimidin-4-yl)amino)benzamide]"
> 1000,101 to 500,501 to 999,,"C=CC(=O)Nc1cc(C)ccc1Nc1nc(NC2CCC(=O)CC2)ncc1C(F)(F)F [Compound I-38, N-(5-Methyl-2-((2-((4-oxocyclohexyl)amino)-5-(trifluoromethyl)pyrimidin-4-yl)amino)phenyl)acrylamide]"
101 to 500,101 to 500,< 100,101 to 500,"C=CC(=O)Nc1ccccc1Nc1nc(Nc2cc(C(=O)NCCO)c(F)cc2C)ncc1Cl [Compound I-232, 5-((4-((2-acrylamidophenyl)amino)-5-chloropyrimidin-2-yl)amino)-2-fluoro-N-(2-hydroxyethyl)-4-methylbenzamide]"
101 to 500,< 100,< 100,,"C=CC(=O)Nc1ccccc1Nc1nc(N[C@H]2CCCN(C(=O)[C@@H](C)O)C2)ncc1Cl [Compound I-134, N-(2-((5-chloro-2-(((S)-1-((R)-2-hydroxypropanoyl)piperidin-3-yl)amino)pyrimidin-4-yl)amino)phenyl)acrylamide]"
> 1000,101 to 500,501 to 999,101 to 500,"O=C(CCCl)Nc1ccccc1Nc1nc(N[C@H]2CCCN(C(=O)CO)C2)ncc1C(F)(F)F [Compound I-22, (S)-3-Chloro-N-(2-((2-((1-(2-hydroxyacetyl)piperidin-3-yl)amino)-5-(trifluoromethyl)pyrimidin-4-yl)amino)phenyl)propanamide]"
> 1000,> 1000,101 to 500,,"CN(C)CCC(=O)Nc1ccccc1Nc1nc(N[C@H]2CCCN(C(=O)CO)C2)ncc1C(F)(F)F [Compound I-276, (S)-3-(dimethylamino)-N-(2-((2-((1-(2-hydroxyacetyl)piperidin-3-yl)amino)-5-(trifluoromethyl)pyrimidin-4-yl)amino)phenyl)propanamide]"
501 to 999,501 to 999,501 to 999,,"C=C(C)S(=O)(=O)Nc1ccccc1Nc1nc(N[C@H]2CCCN(C(=O)CO)C2)ncc1C(F)(F)F [Compound I-46, (S)—N-(2-((2-((1-(2-Hydroxyacetyl)piperidin-3-yl)amino)-5-(trifluoromethyl)pyrimidin-4-yl)amino)phenyl)prop-1-ene-2-sulfonamide]"
101 to 500,< 100,< 100,,"C=CC(=O)Nc1cc(C)ccc1Nc1nc(Nc2cc(C(N)=O)ccc2C)ncc1Cl [Compound I-229, 3-((4-((2-acrylamido-4-methylphenyl)amino)-5-chloropyrimidin-2-yl)amino)-4-methylbenzamide]"
101 to 500,< 100,101 to 500,101 to 500,"C=CC(=O)Nc1cc(C)ccc1Nc1nc(Nc2ccncc2C)ncc1Cl [Compound I-236, N-(2-((5-chloro-2-((3-methylpyridin-4-yl)amino)pyrimidin-4-yl)amino)-5-methylphenyl)acrylamide]"
501 to 999,< 100,101 to 500,,"CCC(=O)Nc1ccccc1Nc1nc(N[C@H]2CCCN(C(=O)CO)C2)ncc1C(F)(F)F [Compound I-318, (S)—N-(2-((2-((1-(2-hydroxyacetyl)piperidin-3-yl)amino)-5-(trifluoromethyl)pyrimidin-4-yl)amino)phenyl)propionamide]"
501 to 999,< 100,< 100,,"CC(C)S(=O)(=O)c1ccccc1Nc1nc(N[C@H]2CCCN(C(=O)CO)C2)ncc1C(F)(F)F [Compound I-310, (S)-2-hydroxy-1-(3-((4-((2-(isopropylsulfonyl)phenyl)amino)-5-(trifluoromethyl)pyrimidin-2-yl)amino)piperidin-1-yl)ethanone]"
101 to 500,101 to 500,< 100,101 to 500,"C=CC(=O)Nc1ccccc1Nc1nc(Nc2cc(C(=O)NC)c(F)cc2C)ncc1C(F)(F)F [Compound I-80, 5-((4-((2-Acrylamidophenyl)amino)-5-(trifluoromethyl)pyrimidin-2-yl)amino)-2-fluoro-N,4-dimethylbenzamide]"
101 to 500,< 100,< 100,101 to 500,"C=CC(=O)Nc1ccccc1Nc1nc(Nc2cc(C(=O)NCCO)c(F)cc2C)ncc1C(F)(F)F [Compound I-81, 5-((4-((2-Acrylamidophenyl)amino)-5-(trifluoromethyl)pyrimidin-2-yl)amino)-2-fluoro-N-(2-hydroxyethyl)-4-methylbenzamide]"
< 100,< 100,< 100,,"C=CC(=O)Nc1ccc(C)cc1Nc1nc(N[C@H]2CCCN(C(=O)CO)C2)ncc1C(F)(F)F [Compound I-37, (S)—N-(2-((2-((1-(2-hydroxyacetyl)piperidin-3-yl)amino)-5-(trifluoromethyl)pyrimidin-4-yl)amino)-4-methylphenyl)acrylamide]"
< 100,< 100,< 100,,"C=CC(=O)Nc1ccccc1Nc1nc(Nc2cc(C(N)=O)ccc2OC)ncc1C(F)(F)F [Compound I-70, 3-((4-((2-Acrylamidophenyl)amino)-5-(trifluoromethyl)pyrimidin-2-yl)amino)-4-methoxybenzamide]"
101 to 500,< 100,101 to 500,,"C=C(C)S(=O)(=O)Nc1cc(C)ccc1Nc1nc(N[C@H]2CCCN(C(=O)CO)C2)ncc1C(F)(F)F [Compound I-47, (S)—N-(2-((2-((1-(2-Hydroxyacetyl)piperidin-3-yl)amino)-5-(trifluoromethyl)pyrimidin-4-yl)amino)-5-methylphenyl)prop-1-ene-2-sulfonamide]"
101 to 500,< 100,< 100,,"C=CC(=O)Nc1ccccc1Nc1nc(Nc2cc(C(=O)NOC)ccc2C)ncc1Cl [Compound I-191, 3-((4-((2-acrylamidophenyl)amino)-5-chloropyrimidin-2-yl)amino)-N-methoxy-4-methylbenzamide]"
> 1000,< 100,< 100,,"CCC(=O)Nc1ccccc1Nc1nc(N[C@H]2CCCN(C(C)=O)C2)ncc1C(F)(F)F [Compound I-317, (S)—N-(2-((2-((1-acetylpiperidin-3-yl)amino)-5-(trifluoromethyl)pyrimidin-4-yl)amino)phenyl)propionamide]"
,> 1000,> 1000,,"C/C=C/S(=O)(=O)Nc1cc(F)ccc1Nc1nc(N[C@H]2CCCN(C(=O)CO)C2)ncc1C(F)(F)F [Compound I-48, (S,E)-N-(5-Fluoro-2-((2-((1-(2-hydroxyacetyl)piperidin-3-yl)amino)-5-(trifluoromethyl)pyrimidin-4-yl)amino)phenyl)prop-1-ene-1-sulfonamide]"
< 100,< 100,< 100,,"C=CC(=O)Nc1ccccc1Nc1nc(N[C@H]2CCCN(C(=O)CC)C2)ncc1Cl [Compound I-131, (S)—N-(2-((5-chloro-2-((1-propionylpiperidin-3-yl)amino)pyrimidin-4-yl)amino)phenyl)acrylamide]"
